Measured values taken from PubChem BioAssay (NCI).
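Assay format: 96-well plates, 48-hour exposure. Definition used: TGI = concentration required for complete inhibition of growth.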

What was measured:
Assay in all cases: inhibition of tumour cell growth, NCI panel, 48 h
786-0 renal = test system: 786-0 renal
A498 renal = test system: A498 renal
A549 NSCLC = test system: A549 NSCLC
ACHN renal = test system: ACHN renal
BT-549 breast = test system: BT-549 breast
CAKI-1 renal = test system: CAKI-1 renal
CCRF-CEM leukemia = test system: CCRF-CEM leukemia
COLO 205 colon = test system: COLO 205 colon
DU-145 prostate = test system: DU-145 prostate
EKVX NSCLC = test system: EKVX NSCLC
HCC-2998 colon = test system: HCC-2998 colon
HCT-116 colon = test system: HCT-116 colon
HCT-15 colon = test system: HCT-15 colon
HL-60(TB) leukemia = test system: HL-60(TB) leukemia
HOP-62 NSCLC = test system: HOP-62 NSCLC
HOP-92 NSCLC = test system: HOP-92 NSCLC
HS 578T breast = test system: HS 578T breast
HT29 colon = test system: HT29 colon
IGROV1 ovarian = test system: IGROV1 ovarian
K-562 leukemia = test system: K-562 leukemia
KM12 colon = test system: KM12 colon
LOX IMVI melanoma = test system: LOX IMVI melanoma
M14 melanoma = test system: M14 melanoma
MALME-3M melanoma = test system: MALME-3M melanoma
MCF7 breast = test system: MCF7 breast
MDA-MB-231 breast = test system: MDA-MB-231 breast
MDA-MB-435 = test system: MDA-MB-435
MDA-N = test system: MDA-N
MOLT-4 leukemia = test system: MOLT-4 leukemia
NCI-H226 lung = test system: NCI-H226 lung
NCI-H23 lung = test system: NCI-H23 lung
NCI-H460 lung = test system: NCI-H460 lung
NCI-H522 lung = test system: NCI-H522 lung
NCI/ADR-RES ovarian = test system: NCI/ADR-RES ovarian
OVCAR-3 ovarian = test system: OVCAR-3 ovarian
OVCAR-4 ovarian = test system: OVCAR-4 ovarian
OVCAR-5 ovarian = test system: OVCAR-5 ovarian
OVCAR-8 ovarian = test system: OVCAR-8 ovarian
PC-3 prostate = test system: PC-3 prostate
RPMI-8226 leukemia = test system: RPMI-8226 leukemia
RXF 393 renal = test system: RXF 393 renal
SF-268 CNS = test system: SF-268 CNS
SF-295 CNS = test system: SF-295 CNS
SF-539 CNS = test system: SF-539 CNS
SK-MEL-2 melanoma = test system: SK-MEL-2 melanoma
SK-MEL-28 melanoma = test system: SK-MEL-28 melanoma
SK-MEL-5 melanoma = test system: SK-MEL-5 melanoma
SK-OV-3 ovarian = test system: SK-OV-3 ovarian
SN12C renal = test system: SN12C renal
SNB-19 CNS = test system: SNB-19 CNS
SNB-75 CNS = test system: SNB-75 CNS
SW-620 colon = test system: SW-620 colon
T-47D breast = test system: T-47D breast
TK-10 renal = test system: TK-10 renal
U251 CNS = test system: U251 CNS
UACC-257 melanoma = test system: UACC-257 melanoma
UACC-62 melanoma = test system: UACC-62 melanoma
UO-31 renal = test system: UO-31 renal

For `CN(C)CCNC1=CC(=O)c2c(O)ccc(O)c2C1=O`, the TGI (786-0 renal) was 15.4 µM, the TGI (A498 renal) was 28 µM and the TGI (A549 NSCLC) was 27.3 µM. The TGI (ACHN renal) was 25.8 µM, the TGI (BT-549 breast) was 31 µM and the TGI (CAKI-1 renal) was 27.3 µM. The TGI (CCRF-CEM leukemia) was 11.3 µM, the TGI (COLO 205 colon) was 3.63 µM and the TGI (DU-145 prostate) was 26.7 µM. The TGI (EKVX NSCLC) was 25.6 µM, the TGI (HCC-2998 colon) was 13.5 µM and the TGI (HCT-116 colon) was 9.05 µM. For the same compound, the TGI (HCT-15 colon) was greater than 40.8 µM, the TGI (HL-60(TB) leukemia) was 6.53 µM and the TGI (HOP-62 NSCLC) was 30.3 µM. For the same compound, the TGI (HOP-92 NSCLC) was 27.8 µM, the TGI (HS 578T breast) was 53.6 µM and the TGI (HT29 colon) was 8.75 µM. The TGI (IGROV1 ovarian) was 16.7 µM, the TGI (K-562 leukemia) was greater than 100 µM and the TGI (KM12 colon) was 21.2 µM. For the same compound, the TGI (LOX IMVI melanoma) was 12.7 µM, the TGI (M14 melanoma) was 12.4 µM and the TGI (MALME-3M melanoma) was 2.62 µM. It also gave a TGI (MCF7 breast) of 7.27 µM, a TGI (MDA-MB-231 breast) of 25 µM and a TGI (MDA-MB-435) of 3.33 µM. It also gave a TGI (MDA-N) of 3.55 µM, a TGI (MOLT-4 leukemia) greater than 100 µM and a TGI (NCI-H226 lung) of 39.8 µM. The TGI (NCI-H23 lung) was 18.7 µM, the TGI (NCI-H460 lung) was 14.6 µM and the TGI (NCI-H522 lung) was 9.85 µM. For the same compound, the TGI (NCI/ADR-RES ovarian) was 7.78 µM, the TGI (OVCAR-3 ovarian) was 5.67 µM and the TGI (OVCAR-4 ovarian) was 15.7 µM. The TGI (OVCAR-5 ovarian) was 27.5 µM, the TGI (OVCAR-8 ovarian) was 25.9 µM and the TGI (PC-3 prostate) was 21.5 µM. For the same compound, the TGI (RPMI-8226 leukemia) was greater than 68.2 µM, the TGI (RXF 393 renal) was 31.4 µM and the TGI (SF-268 CNS) was 28.1 µM. For the same compound, the TGI (SF-295 CNS) was 24.3 µM, the TGI (SF-539 CNS) was 20.6 µM and the TGI (SK-MEL-2 melanoma) was 25.3 µM. The TGI (SK-MEL-28 melanoma) was 26.3 µM, the TGI (SK-MEL-5 melanoma) was 3.28 µM and the TGI (SK-OV-3 ovarian) was 83.1 µM. The TGI (SN12C renal) was 21.5 µM, the TGI (SNB-19 CNS) was 31.6 µM and the TGI (SNB-75 CNS) was 31.9 µM. For the same compound, the TGI (SW-620 colon) was 10.1 µM, the TGI (T-47D breast) was 25.5 µM and the TGI (TK-10 renal) was 28 µM. It also gave a TGI (U251 CNS) of 24.4 µM, a TGI (UACC-257 melanoma) of 5.61 µM and a TGI (UACC-62 melanoma) of 5.63 µM. For the same compound, the TGI (UO-31 renal) was 17 µM.
